What all share (format): in vivo
Test [1] deals with Cotton Aphid (Aphis gossypii). The test is described as follows: Cotton aphid seed coating assay on squash. To be noted: 10% SC formulation, infested 13 days after planting, counted 3 days later. The method, then: Compound 2 was tested in an assay designed to evaluate its systemic activity for control of cotton aphid through seed-coating prior to planting. The crop used in this assay was a hybrid squash (var. Pic-N-Pic). Test compound was formulated in a 10% SC formulation. For the 1 mg/seed treatment, the original 10% formulation was used. For the 0.1 mg/seed treatment, the 10% formulation were diluted 10× with DI water before application. Ten squash seeds were used for each treatment. Seeds were placed on waxed paper and a pipette was used to apply the original or diluted formulations to each seed. One half (5 ul) of the sample was spread onto one side of a seed. Once dried (approximately 1 hr), the seed was flipped over and the 2nd half of sample was spread over the other side. The air-dried, treated seeds were individually planted into 3 inch pots containing metro mix. The pots were placed on a California cart and moved into the greenhouse for sub watering only. Thirteen days later, when the seedlings were approximately 9 inch tall with three expanding true leaves, the 1st leaf was infested with approximately 40 wingless aphids. The infested plants were kept in an environmental holding room (23 C, 40% RH, 16 hr light: 8 hr dark) for three days before the number of live aphids was counted under a microscope. […]

The test system of test [2] is Brown Planthopper (Nilaparvata lugens). The test is described as follows: Brown planthopper foliar spray assay on rice. The method, then: (§1) A foliar spray assay and a root-uptake systemic assay were performed on both brown planthopper and green leafhopper. Four-week-old rice seedlings were submerged in 3-cm depth of water in the bottom portion (high 5 cm, diameter 3 cm) of a 2-part glass cylinder (high 18 cm, diameter 3 cm). A metal screen was used to hold the seedlings within the bottom portion. Scotch tape was used to bind the two portions of the cylinder after setting up the seedlings. A metal cap was used to cover the cylinder. There were 4 cylinders for each treatment. The test compound was dissolved in acetone to make a 10,000 ppm stock solution. For the foliar spray assay, this stock solution was diluted with water to make 10, 2.5, 0.31, 0.08 and 0.02 ppm test solutions. A volume of 0.5 ml of a test solution or solvent blank as check was sprayed into the glass cylinder. For systemic test, the stock solution was incorporated at final test concentrations of 10, 2.5, 0.31, 0.08 and 0.02 ppm in the water in which rice seedlings were submerged. In both foliar spray and systemic tests, five laboratory-reared 3rd instar nymphs of brown planthopper or green leafhopper were introduced into each cylinder 3 hr after insecticide application. The treated test units were kept in a growth chamber with conditions set as followings: Temperature 28±0.5° C.; Relative humidity 70±0.5%; Photoperiod […].

Test [3] has as its system Green Leafhopper (Nephotettix sp.). The test is described as follows: Green leafhopper root-uptake systemic assay on rice. The procedure:
as §1

The test system of test [4] is Brown Dog Tick (Rhipicephalus sanguineus). The test is described as follows: Brown dog tick glass plate assay. Conditions: 48-hour observation. The method, then: Compound 2 was evaluated in a dose response series to establish the range of activity of the test compound. Technical material was dissolved in acetone and diluted with the same solvent to obtain the test concentrations. Tick bioassays were conducted by applying 1.0 ml of the test substance to clean dry glass plates confined by 10 cm grease pencil circles drawn on the plates and spread evenly with an acid brush. The plates were allowed to dry for at least 1 hour before adult ticks were confined to the treated substrate using 10 cm Petri dish lids. Each treatment was replicated 5 times. Approximately 5 adult ticks were placed into each replicate. Mortality was assessed at 2, 8, 24 and 48 hours after introduction of the ticks into the test system. The mean percent mortality for each dosage group and time interval was determined and results from the 48-hour observation are presented in Table 10.

The structures appear in SMILES notation.

The source of these data is patent US8193364B2, “Insecticidal N-substituted (6-haloalkylpyridin-3-yl)-alkyl sulfoximines” (Dow AgroSciences, LLC., priority 2006, dated 2012).

As a reminder, the mortality is the percentage killed. High values mean fewer survivors, low ones more survivors.

On to `CC(c1ccc(C(F)(F)F)nc1)S(C)(=O)=NC#N` (centres unmarked) [Compound 2, [1-(6-trifluoromethylpyridin-3-yl)ethyl](methyl)-oxido-λ^4-sulfanylidenecyanamide], for which the “% Control, root uptake systemic, cotton aphid on squash” value in test [1] (seed coating 0.1 mg/seed) is listed as 99.7%; in test [1] (seed coating 1 mg/seed), 100%. For the same molecule, the “% Control at ppm against brown planthopper” value in test [2] (0.02 ppm) is reported as “F (Less than 50)”; in test [2] (0.08 ppm), “E (50-59)”; in test [2] (0.31 ppm), “A (90-100)”; in test [2] (2.5 ppm), “A (90-100)”; in test [2] (10 ppm), “A (90-100)”. The “% Control at ppm against green leafhopper” value in test [3] (0.02 ppm in water) was “D (60-69)”; in test [3] (0.08 ppm in water) it was “B (80-89)”; in test [3] (0.31 ppm in water), “A (90-100)”; in test [3] (2.5 ppm in water) it was “A (90-100)”; in test [3] (10 ppm in water), “A (90-100)”. Also, the mortality at 50 ppm in test [4] (50 ppm) was 28%. The molecule also gave a mortality at 500 ppm in test [4] (500 ppm) of 61%.
